Among the data in ChEMBL document CHEMBL3507680, “University of Dundee, Gates Library screen for HepG2 cell viability” are cytotoxicity values, retold here.

Structures are written as SMILES.

The data set can be described thus: Human HepG2 cell viability assay in 384 well format. To be noted: HepG2 cells, read-out: Inhibition. The class given is toxicity, cell-based. Also noted: dose 125 nL, time 70.5 hour; concentration not given beside the values.
As for `CC(=O)N1C[C@H]2CCCN(S(=O)(=O)c3ccc(Cl)s3)[C@H]2C1`, the cytotoxicity at 70.5 h came out at 44.3%.

In the case of `COCCN(Cc1ccccc1Cl)c1nc(CCN)nc2ccccc12`, the cytotoxicity at 70.5 h was -6.84%.

As to `Cc1oncc1C(=O)NCc1cc(=O)n2c(n1)CN(CC1CC1)CCC2`, the cytotoxicity at 70.5 h came out at 17.8%.

Regarding `CCOCCN1CCN(Cc2cccc(C(=O)N(C)C)c2)CC1CC` (centres undefined), the cytotoxicity at 70.5 h was -6.73%.

As to `Cc1c(NC(C)C(C)C)cccc1C(=O)NCc1nccn1C` (centres undefined), the cytotoxicity at 70.5 h is -3.37%.

With `N#CCCN(Cc1ccco1)C(=O)c1ccc(OCC2CC2)cc1`, the cytotoxicity at 70.5 h is -4.89%.

`COCc1nc(CN2CC(C)(c3ccccc3)CCC2=O)no1` (centres undefined): the cytotoxicity at 70.5 h is -6.99%.

On to `Cc1ccccc1C(=O)N1CCC(n2nnc3cc(F)ccc32)CC1`, for which the cytotoxicity at 70.5 h is -12.1%.

Regarding `Cn1c(Cn2cccn2)nnc1C1CCN(Cc2cccnc2N)CC1`, the cytotoxicity at 70.5 h is -0.251%.

With `CC(C)Oc1cccc(CNC(Cc2ccsc2)c2nccs2)c1` (centres undefined), the cytotoxicity at 70.5 h is -2.9%.

With `CCN(Cc1cccc2c1OCO2)C(=O)NCCOC`, the cytotoxicity at 70.5 h came out at 3.33%.

As to `Cc1cc(C(=O)NCC(O)CN2CCCC2=O)ccc1F` (centres undefined), the cytotoxicity at 70.5 h was -4.58%.

With `CC(CNC(=O)c1cccnc1O)Cn1cccn1` (centres undefined), the cytotoxicity at 70.5 h is -7.01%.

In the case of `CCCN(Cc1ccccc1C)C(CC)CO` (centres undefined), the cytotoxicity at 70.5 h was -7.79%.

As for `CC(C)CC(C)NC1CCN(c2cccc(-c3cscn3)c2)CC1` (centres undefined), the cytotoxicity at 70.5 h was -8.68%.

Take `CCc1oc(C(=O)N2CCCC(c3nnn[nH]3)C2)cc1C` (centres undefined): the cytotoxicity at 70.5 h was -4.85%.

Consider `Cc1cc(C)c(-n2cccn2)c(CN2CCOCC(CN(C)C)C2)c1` (centres undefined), for which the cytotoxicity at 70.5 h is -3.75%.

On to `N[C@H]1CN(S(=O)(=O)c2ccccc2)C[C@@H]1C1CC1`, for which the cytotoxicity at 70.5 h amounted to 17.3%.

With `COc1c(CNCC(c2cccc(F)c2)N(C)C)c(C(C)C)nn1C` (centres undefined), the cytotoxicity at 70.5 h was 12.7%.

Consider `Cc1cc(N2CCCC2Cn2nc(C)cc2C)n2ncnc2n1` (centres undefined), for which the cytotoxicity at 70.5 h was found to be 29%.

`Cc1nn(C)c2ncnc(NCC(O)CN3CCCCC3)c12` (centres undefined): the cytotoxicity at 70.5 h turned out to be 21.5%.

As to `CC(C)(C)CN1CCCC2(CCN(C(=O)c3ccc(O)nc3)C2)C1` (centres undefined), the cytotoxicity at 70.5 h is -7.83%.

For `Cn1ncc2c1C(COCC1CC1)CN(C(=O)c1cscn1)C2` (centres undefined), the cytotoxicity at 70.5 h was -7.06%.

`COCCn1cnnc1CCNc1cc(C)nc2ccnn12`: the cytotoxicity at 70.5 h was -2.09%.

Regarding `COC(=O)c1sccc1S(=O)(=O)NCC1(O)CCOc2ccccc21` (centres undefined), the cytotoxicity at 70.5 h is -4.94%.

As for `CCOCCC1(CNC(=O)c2ccc(C)nc2)CCCC1`, the cytotoxicity at 70.5 h turned out to be 0.601%.

With `CCc1nnc2n1CCN(C(=O)c1ccnc(N(C)C)c1)C2`, the cytotoxicity at 70.5 h was -2.04%.

For the compound `CC(C)(C)C(=O)N1C[C@@H](F)[C@@H](OCc2nc3ccccc3o2)C1`, the cytotoxicity at 70.5 h was -3.29%.

Turning to `COc1ccc(Oc2nccnc2C2CCN(C(C)=O)CC2)cc1`, the cytotoxicity at 70.5 h is -4.84%.

Regarding `CC(NCCCc1cnn(C)c1)c1ccc(Br)s1` (centres undefined), the cytotoxicity at 70.5 h was -1.02%.

For the compound `CC1CN(CC(=O)Nc2cccnc2)CCN1c1nccs1` (centres undefined), the cytotoxicity at 70.5 h is -12.4%.

For the compound `COc1cccc(-c2noc(-c3ccc(NCC(C)O)nc3)n2)c1OC` (centres undefined), the cytotoxicity at 70.5 h is -0.152%.

With `COc1ncccc1CN1C[C@@H]2COC[C@]2(CNC(=O)c2ccno2)C1`, the cytotoxicity at 70.5 h is -15.5%.

As for `CSCc1cc(F)ccc1CNC(=O)N1CCC[C@@H]1CO`, the cytotoxicity at 70.5 h is -4.06%.

Take `CCOc1ccccc1-n1c(C2CCC2)n[nH]c1=O`: the cytotoxicity at 70.5 h is -18.9%.

On to `COc1cccc(CN(C)C(=O)Nc2ccc3c(c2)OCCO3)c1`, for which the cytotoxicity at 70.5 h came out at 12.4%.

With `Cc1cccc(CN2CCOC(C)(C(=O)N3CCOCC3)C2)n1` (centres undefined), the cytotoxicity at 70.5 h worked out at 11%.

As to `CC1CCC(NC(=O)c2nn(C)cc2I)CC1` (centres undefined), the cytotoxicity at 70.5 h is -7.74%.

Consider `CCC(C)c1csc(NC(=O)Cc2csc(-c3nnc[nH]3)n2)n1` (centres undefined), for which the cytotoxicity at 70.5 h amounted to 9.25%.

Regarding `COCCN(C)C(C(=O)O)c1ccc(F)c(Cl)c1` (centres undefined), the cytotoxicity at 70.5 h was 30.8%.

Take `CN1CCN(c2ncccn2)CC12CCC(=O)N(CC1CC1)CC2` (centres undefined): the cytotoxicity at 70.5 h is 9.35%.

Take `CCOCC1CN(C(=O)c2cnoc2C)Cc2cnn(C)c21` (centres undefined): the cytotoxicity at 70.5 h is -12.5%.

For `CNC(=O)NC(=O)CNC(CC(F)(F)F)c1ccc(F)cc1` (centres undefined), the cytotoxicity at 70.5 h came out at 4.15%.

On to `CNc1cc(C)nc(C2COCCN2CCOc2ccc(F)cc2)n1` (centres undefined), for which the cytotoxicity at 70.5 h was -3.24%.

For the compound `CCn1ccnc1CN1CCCN(C(=O)c2csc(C)n2)CC1`, the cytotoxicity at 70.5 h is -5.02%.

Turning to `Cc1nn(C)cc1CNCc1ccc(N(C)C)cc1`, the cytotoxicity at 70.5 h worked out at 1.1%.

Take `CN1CCN(c2ccc(C(=O)N3CCCC(c4ncc[nH]4)C3)cc2)CC1` (centres undefined): the cytotoxicity at 70.5 h was -9.77%.

For the compound `O=C(CCc1nc2cccnc2[nH]1)NCc1cccnc1`, the cytotoxicity at 70.5 h is 0.275%.

For `CSc1cccc(CN2CCC(CCC(=O)NCCN(C)C)CC2)c1`, the cytotoxicity at 70.5 h is -6.05%.

Consider `Cn1cc(CNC2CCc3c(ccc(=O)n3Cc3cccnc3)C2)cn1` (centres undefined), for which the cytotoxicity at 70.5 h was -14.4%.

For the compound `CSCCC(C)(O)CNC(=O)Nc1ccccc1C` (centres undefined), the cytotoxicity at 70.5 h was -6.41%.

For `O=C1OC2(CCN(C(=O)C3NCCc4[nH]cnc43)CC2)c2ccccc21` (centres undefined), the cytotoxicity at 70.5 h is -9.73%.

As to `Cc1ncccc1OC1(C(=O)NCCCN2CCOCC2)CCNCC1`, the cytotoxicity at 70.5 h was -11.7%.

Regarding `COc1cccc2c1N(Cc1nc(C3CC3)no1)CCC2`, the cytotoxicity at 70.5 h stood at 5.14%.

With `CCCN(C)CCC(=O)N1CCCC1Cn1cccn1` (centres undefined), the cytotoxicity at 70.5 h is 15.3%.

Consider `COCCN1CCC2(CC1)CC(NCc1ccc(C)s1)c1ccccc12` (centres undefined), for which the cytotoxicity at 70.5 h was 2.38%.

Turning to `Cc1cc(CC(=O)NCC(O)c2ccc(OC(F)F)cc2)n[nH]1` (centres undefined), the cytotoxicity at 70.5 h was -4.53%.

Take `CC(=O)N1CCO[C@@H]2CN(S(=O)(=O)c3ccc(C)cc3)CC[C@@H]2C1`: the cytotoxicity at 70.5 h amounted to 11.2%.

With `CC(C)COC(=O)N1CCC2(CCNC2)C1` (centres undefined), the cytotoxicity at 70.5 h is -10.5%.

For `CCC(C)NC(=O)c1cccc(CNCc2csc(C(C)C)n2)c1` (centres undefined), the cytotoxicity at 70.5 h was -89.9%.

Consider `Cc1noc(C)c1CN1CCO[C@H]2CN(C3CCOCC3)C[C@H]21`, for which the cytotoxicity at 70.5 h was determined as 21.3%.

With `CC1CCN(C(=O)c2cnc3cc(C(=O)N(C)C)n(C)c3c2)CC1`, the cytotoxicity at 70.5 h is 6.93%.

Take `O=C1CCCN1Cc1ncn2c1CN(C(=O)Cc1ccccc1)CCC2`: the cytotoxicity at 70.5 h came out at 0.61%.

With `CN(C)[C@@H]1CN(Cc2ccoc2)C[C@@H]2CCCO[C@@H]21`, the cytotoxicity at 70.5 h was -8.48%.

In the case of `COc1ccccc1CC(=O)NCCCN1CCCC1C(=O)N(C)C` (centres undefined), the cytotoxicity at 70.5 h is 2.29%.

As to `Cc1n[nH]c(CN2CCN(c3ncnc4scc(C)c34)CC2)c1Cl`, the cytotoxicity at 70.5 h was -8.15%.

As for `O=C(c1ccc2[nH]ccc2c1)N1CCCCC1c1nc[nH]n1` (centres undefined), the cytotoxicity at 70.5 h was -5.67%.

In the case of `Cc1csc(N2CCN(C(=O)c3cc(C4CC4)[nH]n3)CC2)n1`, the cytotoxicity at 70.5 h is -5.91%.

Consider `Cc1cc(C)c2c(c1)C1(CC(=O)Nc3c1cnn3C(C)C)C(=O)N2` (centres undefined), for which the cytotoxicity at 70.5 h was -5.35%.

In the case of `CC(=O)Nc1ccc(CNC2CC(=O)N(Cc3cccc(F)c3)C2)cc1` (centres undefined), the cytotoxicity at 70.5 h is -8.05%.

On to `Cc1ncc2c(n1)CN(CC(=O)Nc1nnc(C)s1)CC2`, for which the cytotoxicity at 70.5 h is -8.66%.

As to `CNc1nc(CNC(=O)Nc2cccc(Cl)c2OC)cs1`, the cytotoxicity at 70.5 h is -3.54%.

For the compound `Cc1csc2nc3n(c(=O)c12)CCN(Cc1ccccn1)CC3`, the cytotoxicity at 70.5 h worked out at 2.36%.

Consider `O=C(c1ccsc1)N1CCc2onc(CN3CCOCC3)c2C1`, for which the cytotoxicity at 70.5 h was -4.87%.

Turning to `Cn1ncnc1CCNC(=O)c1cc(Cl)c(Cl)n1C`, the cytotoxicity at 70.5 h is -2.76%.

Regarding `Nc1cc2c(nn1)CCN(C(=O)c1ccc(-c3ccco3)[nH]c1=O)C2`, the cytotoxicity at 70.5 h is -1.23%.

Turning to `CN(Cc1nccn1C)S(=O)(=O)c1cccc(C#N)c1`, the cytotoxicity at 70.5 h was -1.58%.

In the case of `N#Cc1ccsc1NC(=O)CCN1CCn2c(nnc2C2CC2)C1`, the cytotoxicity at 70.5 h is -7.52%.

As for `O=C(c1cc(=O)n(-c2ccccc2)[nH]1)N1CCCC(c2ccn[nH]2)C1` (centres undefined), the cytotoxicity at 70.5 h is 48%.

As to `CC(=O)c1cc(C(=O)NC2(c3ccc(Br)cc3)CC2)n(C)c1`, the cytotoxicity at 70.5 h is -3.42%.

`Cc1nc2c(c(=O)[nH]1)CCN(C(=O)c1[nH]nc3c1CC(C)CC3)C2` (centres undefined): the cytotoxicity at 70.5 h was found to be 2.4%.

For the compound `O=S(=O)(NCC1(O)CCOCC1)c1ccccc1Br`, the cytotoxicity at 70.5 h is -0.33%.

`COC(=O)c1ccc(C(=O)NCc2ccc(Br)cc2)cn1`: the cytotoxicity at 70.5 h is -2.31%.

For the compound `Cc1c(C)c(C)c2[nH]c(-c3cn(C4CCNCC4)nn3)nc2c1C`, the cytotoxicity at 70.5 h is -5.74%.

On to `Cc1ccc(-c2nnc(CCC(=O)NCc3cn(C)nc3C)o2)s1`, for which the cytotoxicity at 70.5 h was -9.67%.

As to `O=C(c1cc(-n2cccn2)ccc1Cl)N1CCC(N2CCCC2=O)CC1`, the cytotoxicity at 70.5 h is -9.31%.

Consider `CO[C@H]1C[C@@H]2CN(C(=O)c3cc4ccc(F)cc4[nH]3)C[C@@H]2C1`, for which the cytotoxicity at 70.5 h is -6.74%.

In the case of `O=c1[nH]c(NCCCO)nc2c1C1(CCCC1)Cc1ccccc1-2`, the cytotoxicity at 70.5 h was -23.5%.

For the compound `CCn1cc(CN2CCN(C)C3(CCC(=O)N(CC4CC4)CC3)C2)cn1` (centres undefined), the cytotoxicity at 70.5 h was found to be 1.18%.

For the compound `CC(C)(C)c1nc(CN(Cc2cccs2)CC2CCCO2)no1` (centres undefined), the cytotoxicity at 70.5 h was 3.58%.

For the compound `O=S(=O)(N1CCCCC1)N1CCOC2(CCCC2)C1`, the cytotoxicity at 70.5 h is -0.763%.

As to `CS(=O)(=O)N1CCc2ccc(=O)n(CCN3CCCC3)c2CC1`, the cytotoxicity at 70.5 h is -6.85%.

As to `NC(=O)C1CCN(CC(=O)NCCc2c(F)cccc2F)CC1`, the cytotoxicity at 70.5 h is -7.99%.

Consider `COc1ccc2c(c1)CCCC2CC(=O)NCC(C)(C)C(=O)O` (centres undefined), for which the cytotoxicity at 70.5 h was -10.7%.

On to `COc1ccc(Cl)cc1CCNC(=O)NCc1cnn(C)c1C`, for which the cytotoxicity at 70.5 h is -4.39%.

For the compound `CCc1c(C)nc(C)nc1N1CCC(NCCSc2nnnn2C)CC1`, the cytotoxicity at 70.5 h was -6.49%.

With `Cc1ccc(NC(=O)c2nc(N3CCCCC3)ncc2Cl)cc1I`, the cytotoxicity at 70.5 h was -7.45%.

As to `O=C(O)c1cc(-c2ccoc2)cc(S(=O)(=O)NCc2ccccn2)c1`, the cytotoxicity at 70.5 h was -8.18%.

Regarding `Cn1c(SCC(O)COCc2ccc(Cl)cc2)nnc1C1CC1` (centres undefined), the cytotoxicity at 70.5 h was -3.52%.
